In patent publication US20240293327A1, “MONOLITHIC TABLETS BASED ON CARBOXYL POLYMERIC COMPLEXES FOR CONTROLLED DRUG RELEASE” (MATRIPHARM INTERNATIONAL INC., priority 2014, published 2024):
Where a name gives a salt, the structure may show the parent alone.

How the values were obtained:
[1] = cited from earlier work
[2] = Beagle dog, oral, 500 mg, 1 dose
in vivo = conditions: male, beagle, dog, plasma, po, 500 mg

Ke (terminal elimination rate per hour) [2] [h⁻¹] | AUC(0-inf) (in vivo) [ng·h/mL] | AUC(0-t) (in vivo) [ng·h/mL] | Cmax (in vivo) [ng/mL] | MRT (in vivo) [h] | Tmax (in vivo) [h] | SMILES | Time to complete absorption after administration ([1]; estimated) [h] | Absorbed in the remaining part of (lower) intestine tract ([1]; in vivo) | Recovered in faeces ([1]; in vivo)
– | – | – | – | – | – | CN(C)C(=N)N=C(N)N [Metformin] | ≤ 6 | about 40% | up to 30%
0.157 | 81200 | 77900 | 12400 | 8.02 | 1.3 | CN(C)C(=N)N=C(N)N [Metformin (Matrix-free), metformin hydrochloride] | – | – | –
